System: ConA-stimulated splenocytes
Experiment: Mitogen proliferative assay (MSC:splenocyte co-culture, BrdU)
Format: cell-based, mouse
Settings: mAdMSC:splenocyte 1:20 and 1:10; with or without HA or E-selectin pre-incubation
Description: Mitogen proliferative assays were performed as described previously (Yañez et al., 2006; Yanez et al., 2010). Briefly, splenocytes were isolated from C57BL/6 and BALB/c mice spleen cell suspensions by passage through 40-μm nylon cell strainers (Becton Dickinson), followed by red blood lysis with 0.83% ammonium chloride in 0.01 M Tris-HCl buffer pH 7.5 (Sigma-Aldrich). To induce splenocyte proliferation, 1×10^5 splenocytes were resuspended in RPMI 1640 medium (Gibco, Carlsbad, CA, United States) supplemented with 10% FBS (proliferation medium) and treated with 10 μg/ml concanavalin A (ConA) (Sigma-Aldrich). To assess for effect(s) on splenocyte proliferation, MSCs were resuspended in complete medium and seeded in wells together with splenocytes at decreasing ratios of MSC:splenocyte (from 1:1 to 1:100). After 3 days of MSC:splenocyte co-cultures, splenocyte proliferation was measured using an ELISA BrdU colorimetric kit (Roche Diagnostics). In brief, BrdU labeling reagent was added to wells 16 h before determination. Then, cells were fixed, DNA denatured and incubated with an anti-BrdU-POD antibody. After washing and substrate addition, absorbance was measured. In some experiments, UmAdMSCs and FucmAdMSCs, or FuchAdMSCs and FuchBMMSCs, were treated with sialidase from Vibrio cholerae (0.1 U/ml, Roche Diagnostics) to remove terminal sialic acids (i.e., sialUmAdMSCs and sialFucmAdMSCs, or sialFuchAdMSCs and sialFuchBMMSCs). As indicated, mMSCs or hMSCs were cultured for 24 h or 72 h with different concentrations of mE-Ig chimera or of hyaluronic acid (HA, from rooster comb; Sigma-Aldrich) for 24 h or 72 h following described protocols (Burdick et al., 2006; Thankamony and Sackstein, 2011). Briefly, mE-Ig or HA were immobilized on plates. […] In some experiments, cultures of mAdMSCs seeded on E-selectin and/or HA for 72 h were washed, then co-cultured in presence of continuous E-selectin and/or HA with murine splenocytes (at MSC:splenocyte ratio of 1:20) for 72 h in presence of ConA, and splenocyte proliferation was assessed. […]

SMILES	proliferation of mitogen-stimulated splenocytes in mAdMSC co-cultures with inhibitor
Cn1cc(CC(N)C(=O)O)c2ccccc21 (racemic) [1-methyl-DL-tryptophan]	significantly rescued the proliferation
CNC(=N)NCCC[C@H](N)C(=O)O [N^G-monomethyl-L-arginine]	significantly rescued the proliferation
NC(=O)c1ccc(-c2nc(-c3ccc4c(c3)OCO4)c(-c3ccccn3)[nH]2)cc1 [SB-431542]	significantly rescued the proliferation

Reference: patent publication US20260007746A1, “COMPOSITIONS AND METHODS FOR TREATMENT OF INFLAMMATORY DISORDERS” (priority 2020, published 2026)
